Data: patent US8546433B2, “Axl inhibitors for use in combination therapy for preventing, treating or managing metastatic cancer” (Rigel Pharmaceuticals, Inc., priority 2009, dated 2013)

Assays:
4T1 tumor cells [1] = assay: Mouse 4T1 breast tumor model: Compound A in preventing lung and liver metastasis of a primary breast tumor (Biological Example 1); format: in vivo, BALB/c mice; conditions: 21 days; for effect on the number of large lung metastases, difference to vehicle: FIG. 3; for effect on the incidence of liver micrometastases, difference to Cisplatin at 1.2 mg/kg / effect on the incidence of liver micrometastases, difference to vehicle: FIG. 4; for effect on the number of medium lung metastases, difference to vehicle: FIG. 2
Procedure: Protocol Eighty-eight BALB/c mice were inoculated with 5×10^5 4T1 tumor cells (ATCC) orthotoically into the third mammary fat pad. On Day 0 of the study (2 days post-inoculation), 80 mice were randomized into 8 groups (10 mice per group). Dose administration began on Day 0 and continued for 21 days (3 weeks). Compound A was administered twice a day, Cisplatin was administered once a week, and Zometa was administered three times weekly. Tumor measurements were performed three times per week, starting when tumors were palpable (approximately 3×3 mm). Body weight measurements were taken three times per week at the same time each day. Tumor and body weight measurements fall all mice were measured prior to dose administration. On Day 21 of the treatment, mice were euthanized and the lungs exposed and the numbers of surface lung metastases were counted. The size of each metastasis was measured using a caliper in one dimenstion and categorized as follows: Small: Less than 2 mm Medium: Greater or equal to 2 mm Large: Greater or equal to 3 mm The lungs and livers from all mice were excised and placed in PLP fixative and stained for micrometastasis quantification.

4T1 tumor cells [2] = assay: Mouse 4T1 breast tumor model: Compound A in combination with Cisplatin in preventing lung and liver metastasis (Biological Example 2); format: in vivo, BALB/c mice; conditions: 21 days, FIG. 7
Procedure: Using a variation of the mouse 4T1 breast tumor model, as described in Current Protocols in Immunology (2000), 20.2.1-20.2.16, Compound A in combination with Cisplatin was assayed to determine the efficacy of the combination therapy to prevent, treat or manage metastatic cancer in BALB/c mice.
• Vehicle: 0.5% HPMC/0.1% Tween. • Compound A: Preformulated dosing solutions in vehicle for 7 mg/kg and 21 mg/kg for oral administration. • Cisplatin: Diluted in sterile saline for 1.2 mg/kg (suboptimal clinical formulation) for intravenous administration. Protocol
Sixty-six BALB/c mice were inoculated with 5×10^5 4T1 tumor cells (ATCC) orthotoically into the third mammary fat pad. On Day 0 of the study (2 days post-inoculation), 60 mice were randomized into 6 groups (10 mice per group). Dose administration began on Day 0 and continued for 21 days (3 weeks). Compound A was administered twice a day, Cisplatin was administered once a week, and Zometa was administered three times weekly. Tumor measurements were performed three times per week, starting when tumors were palpable (approximately 3×3 mm). Body weight measurements were taken three times per week at the same time each day. Tumor and body weight measurements fall all mice were measured prior to dose administration.
On Day 21 of the treatment, mice were euthanized and the lungs exposed and the number of surface lung metastases were counted. The size of each metastasis was measured using a caliper in one dimenstion and categorized as follows:
Medium: Greater or equal to 2 mm
Large: Greater or equal to 3 mm
The lungs and livers from all mice were excised and placed in PLP fixative and stained for micrometastasis quantification.

[3] = Cisplatin 1.2 mg/kg intravenous once a week, p<0.05, Mann-Whitney Test
[4] = Cisplatin 2.4 mg/kg intravenous once a week, p<0.05, Mann-Whitney Test
[5] = Compound A 25 mg/kg oral twice a day, p<0.05, Mann-Whitney Test
[6] = Compound A 45 mg/kg oral twice a day, p<0.05, Mann-Whitney Test

N.N.[Cl][Pt][Cl] [Cisplatin, cis-diamminedichloridoplatinum(II), reference compound]
significant: effect on the number of large lung metastases, difference to vehicle (4T1 tumor cells [1]; [3]) | effect on the number of large lung metastases, difference to vehicle (4T1 tumor cells [1]; [4]) | effect on the incidence of liver micrometastases, difference to Cisplatin at 1.2 mg/kg (4T1 tumor cells [1]; [4]) | effect on the incidence of liver micrometastases, difference to Cisplatin at 1.2 mg/kg (4T1 tumor cells [1]; Cisplatin 4 mg/kg intravenous once a week, p<0.05, Mann-Whitney Test) | effect on the number of medium lung metastases, difference to vehicle (4T1 tumor cells [1]; cisplatin 4 mg/kg intravenous once a week, p<0.001, Mann-Whitney Test) | effect on reducing the number of large lung metastases, difference to vehicle (4T1 tumor cells [2]; [3])

Nc1nc(Nc2ccc3c(c2)CC[C@@H](N2CCCC2)CC3)nn1-c1cc2c(nn1)-c1ccccc1CCC2 [Compound A, 1-(6,7-dihydro-5H-benzo[6,7]cyclohepta[1,2-c]pyridazin-3-yl)-N^3-((7-(S)-pyrrolidin-1-yl)-6,7,8,9-tetrahydro-5H-benzo[7]annulene-2-yl)-1H-1,2,4-triazole-3,5-diamine]
significant: effect on the number of large lung metastases, difference to vehicle (4T1 tumor cells [1]; [5]) | effect on the incidence of liver micrometastases, difference to vehicle (4T1 tumor cells [1]; [5]) | effect on the number of medium lung metastases, difference to vehicle (4T1 tumor cells [1]; [6]) | effect on the incidence of liver micrometastases, difference to vehicle (4T1 tumor cells [1]; [6]) | effect on the incidence of liver micrometastases, difference to vehicle (4T1 tumor cells [1]; Compound A 75 mg/kg oral twice a day, p<0.05, Mann-Whitney Test) | effect on reducing the number of large lung metastases, difference to vehicle (4T1 tumor cells [2]; Compound A 7 mg/kg oral twice a day, p<0.01, Mann-Whitney Test) | effect on reducing the number of large lung metastases, difference to vehicle (4T1 tumor cells [2]; Compound A 21 mg/kg oral twice a day, p<0.01, Mann-Whitney Test)

O=P(O)(O)C(O)(Cn1ccnc1)P(=O)(O)O [Zometa, reference compound]
significant: effect on the incidence of liver micrometastases, difference to vehicle (4T1 tumor cells [1]; Zometa 0.1 mg/kg subcutaneous three times weekly, p<0.05, Mann-Whitney Test)
